# US6300353A, “Azoles for treatment of fungal infections” (Basilea Pharmaceutica AG, a Swiss Company, priority 1998, dated 2001)
# Read-outs that look alike come from different tables or passages of the source.
# What was measured:
# [1] = Conversion of compounds of formula (I') to compounds of formula (II) in human plasma; type: in vitro ADME; conditions: 37° C.; for remaining at 5 min / metabolised at 5 min: incubation time 5 min; for remaining at 5 min: read-out: Observed (%) Comp. (I'); for metabolised at 5 min: read-out: Observed (%) Compound (II)
# Protocol: In addition, the azole of formula I' are chemically stable in aqueous solution at room temperature more than three days, but are efficiently converted into compounds of formula (II) in either mouse, rat, monkey or human plasma. The conversion of representatives of the new azole compounds of the general formula (I') to compounds of formula (II) in human plasma are shown in Table 4. The compounds of formula (I') were incubated with human plasma at a concentration of 10.quadrature.g/ml at 37° C. for up to 20 min.
# physchem = conditions: water
# Candida albicans = test: In vivo efficacy, systemic candidiasis model; conditions: in Rattus norvegicus, 336 h
# Aspergillus fumigatus [2] = test: In vivo efficacy, systemic aspergillosis model; conditions: in Rattus norvegicus, 336 h
# Aspergillus fumigatus [3] = test: In vivo efficacy, pulmonary aspergillosis model; conditions: in Rattus norvegicus, 336 h
# CYP2C9 = CYP2C9 (Homo sapiens, UniProt P11712); test: In vitro P450 inhibitory activity (CYP2C9, tolbutamide 4-hydroxylation), human liver microsomes
# Protocol: Each azole compound at different concentrations was incubated with a specific substrate for each CYP, human liver microsomes and NADPH at 37° C. […] The substrate concentrations and incubation conditions were as follows:
# CYP3A4 = CYP3A4 (Homo sapiens, UniProt P08684); test: In vitro P450 inhibitory activity (CYP3A4, midazolam 1-hydroxylation), human liver microsomes; type: in vitro ADME; conditions: midazolam 10 μM, 10 min, read-out: P450 inhibition IC50, CYP 3A4
# [4] = po, read-out: Effective dose 50% (ED50), systemic candidiasis, p.o.
# [5] = iv, read-out: Effective dose 50% (ED50), systemic aspergillosis, i.v.
# [6] = iv, read-out: Effective dose 50% (ED50), pulmonary aspergillosis, i.v.
# Chain of CYP2C9 (P11712 whole entry): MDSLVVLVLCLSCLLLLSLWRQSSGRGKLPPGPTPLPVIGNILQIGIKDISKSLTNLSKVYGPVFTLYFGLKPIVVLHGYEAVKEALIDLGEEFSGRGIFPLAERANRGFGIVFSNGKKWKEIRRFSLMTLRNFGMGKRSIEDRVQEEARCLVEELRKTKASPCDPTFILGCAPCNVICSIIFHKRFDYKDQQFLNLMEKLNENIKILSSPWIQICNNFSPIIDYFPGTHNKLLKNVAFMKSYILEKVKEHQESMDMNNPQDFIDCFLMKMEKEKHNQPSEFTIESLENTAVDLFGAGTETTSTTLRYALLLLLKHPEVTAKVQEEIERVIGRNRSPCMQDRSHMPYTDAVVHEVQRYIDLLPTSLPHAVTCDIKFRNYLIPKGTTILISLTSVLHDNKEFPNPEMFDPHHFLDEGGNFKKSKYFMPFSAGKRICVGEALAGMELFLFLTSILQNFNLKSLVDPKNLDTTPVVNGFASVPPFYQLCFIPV
# Chain of CYP3A4 (P08684 whole entry): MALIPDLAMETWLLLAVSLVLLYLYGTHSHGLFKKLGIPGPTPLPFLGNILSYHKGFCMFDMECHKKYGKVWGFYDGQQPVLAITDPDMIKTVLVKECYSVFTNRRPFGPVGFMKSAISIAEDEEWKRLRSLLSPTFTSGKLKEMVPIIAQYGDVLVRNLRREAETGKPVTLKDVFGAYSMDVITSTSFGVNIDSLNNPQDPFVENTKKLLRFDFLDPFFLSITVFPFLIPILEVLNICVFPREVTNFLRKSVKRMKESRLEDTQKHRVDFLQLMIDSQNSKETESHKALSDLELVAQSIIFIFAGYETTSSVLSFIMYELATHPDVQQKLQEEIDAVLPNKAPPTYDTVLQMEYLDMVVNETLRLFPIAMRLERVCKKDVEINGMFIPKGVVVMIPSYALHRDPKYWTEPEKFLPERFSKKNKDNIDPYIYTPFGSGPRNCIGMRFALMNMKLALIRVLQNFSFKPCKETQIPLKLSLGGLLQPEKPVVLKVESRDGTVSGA
Compound,half-life [1] [min],remaining at 5 min [1] [%],metabolised at 5 min [1] [%],solubility (physchem) [mg/mL],ED50 (Candida albicans; [4]) [µmol/kg],ED50 (Aspergillus fumigatus [2]; [5]) [µmol/kg],ED50 (Aspergillus fumigatus [3]; [6]) [µmol/kg],IC50 (CYP2C9) [µM],further results
"CNCC(=O)Oc1c(C)cc(C[n+]2cnn(C[C@](O)(c3cc(F)ccc3F)[C@@H](C)c3nc(-c4ccc(C#N)cc4)cs3)c2)cc1C.[Br-] [Example 1, 1-{(2R,3R)-3-[4-(4-cyano-phenyl)-thiazol-2-yl]-2-(2,5-difluoro-phenyl)-2-hydroxy-butyl}-4-(3,5-dimethyl-4-methylaminoacetoxy-benzyl)-1H-[1,2,4]triazol-4-ium bromide]",< 1,< 5,96,22,5.3,3,8 ± 4.2,–,"ED50 (Candida albicans; iv, read-out: Effective dose 50% (ED50), systemic candidiasis, iv.): 5.3 µmol/kg; ED50 (Aspergillus fumigatus [2]; po, read-out: Effective dose 50% (ED50), systemic aspergillosis, p.o.): 5.8 µmol/kg; ED50 (Aspergillus fumigatus [3]; po, read-out: Effective dose 50% (ED50), pulmonary aspergillosis, p.o.): 7.4 ± 3.8 µmol/kg"
"CNCC(=O)Oc1c(C)cc(C[n+]2cnn(C[C@](O)(c3cc(F)c(F)cc3F)[C@@H](C)c3nc(-c4ccc(C#N)cc4)cs3)c2)cc1C.Cl.[Br-] [Example 3, 1-[(2R,3R)-3-[4-(4-cyanophenyl)thiazol-2-yl]-2-hydroxy-2-(2,4,5-trifluorophenyl)butyl]-4-(3,5-dimethyl-4-methylaminoacetoxybenzyl)-1H-[1,2,4]triazol-4-ium bromide hydrochloride]",< 1,< 5,89,> 7,–,–,–,–,–
C[C@@H](c1nc(-c2ccc(C#N)cc2)cs1)[C@](O)(Cn1cncn1)c1cc(F)ccc1F [Example 4],–,–,–,–,–,–,–,35.1,–
C[C@@H](c1nc(-c2ccc(C#N)cc2)cs1)[C@](O)(Cn1cncn1)c1cc(F)c(F)cc1F [Example 5],–,–,–,–,–,–,–,18.4,IC50 (CYP3A4): 23 µM
"OC(Cn1cncn1)(Cn1cncn1)c1ccc(F)cc1F [Fluconazole, reference compound]",–,–,–,–,1.4,–,–,–,–
"CCC(C)n1ncn(-c2ccc(N3CCN(c4ccc(OCC5COC(Cn6cncn6)(c6ccc(Cl)cc6Cl)O5)cc4)CC3)cc2)c1=O (stereo not shown) [Itraconazole, reference compound]",–,–,–,–,3.9 ± 2.2,4,2 ± 1.1,25.7,–
